Results from PubChem BioAssay (NCI).
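All cell lines were grown in 96-well plates and treated with compound for 48 hours. GI50 is the concentration that inhibits growth by half. TGI marks complete inhibition of growth.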

What was measured:
Assay in all cases: NCI anticancer screen, dose series, 48 h
[1] = tested on: SNB-75 CNS
[2] = tested on: MOLT-4 leukemia
[3] = tested on: M14 melanoma
[4] = tested on: HT29 colon
[5] = tested on: OVCAR-3 ovarian
[6] = tested on: 786-0 renal
[7] = tested on: DU-145 prostate
[8] = tested on: UO-31 renal
[9] = tested on: HCC-2998 colon
[10] = tested on: A549 NSCLC

COc1cc2c(cc1F)C(c1ccccc1Cl)=Nc1c(n[nH]c1C)N2
GI50 [1]: 0.189 µM
TGI [1]: 0.724 µM
GI50 [2]: 5 µM
TGI [2]: 38.6 µM
GI50 [3]: 0.911 µM
TGI [3]: 22 µM
GI50 [4]: 0.587 µM
TGI [4]: 8.83 µM
GI50 [5]: 0.597 µM
TGI [5]: 21.6 µM
GI50 [6]: 1.82 µM
TGI [6]: 19.3 µM
GI50 [7]: 3.46 µM
TGI [7]: 21 µM
GI50 [8]: 0.84 µM
TGI [8]: 6.25 µM
GI50 [9]: 11.3 µM
TGI [9]: 24.1 µM
GI50 [10]: 0.938 µM
TGI [10]: 23.9 µM

COc1ccc(/C=C(\C)[N+](=O)[O-])cc1OC
GI50 [1]: 2.2 µM
TGI [1]: 12.2 µM
GI50 [2]: 3.86 µM
TGI [2]: 9.52 µM
GI50 [3]: 1.96 µM
TGI [3]: 3.95 µM
GI50 [4]: 2.2 µM
TGI [4]: 4.43 µM
GI50 [5]: 1.87 µM
TGI [5]: 3.29 µM
GI50 [6]: 1.93 µM
TGI [6]: 3.57 µM
GI50 [7]: 1.79 µM
TGI [7]: 3.22 µM
GI50 [8]: 1.68 µM
TGI [8]: 3.2 µM
GI50 [9]: 1.82 µM
TGI [9]: 3.29 µM
GI50 [10]: 5.56 µM
TGI [10]: 19.3 µM

C=CCc1cc(Nc2c3ccc(Cl)cc3nc3ccc(OC)cc23)cc(CN(CC)CC)c1O
GI50 [1]: 3.85 µM
TGI [1]: 19.3 µM
GI50 [2]: 1.24 µM
TGI [2]: 4.92 µM
GI50 [3]: 1.9 µM
TGI [3]: 5.3 µM
GI50 [4]: 1.75 µM
TGI [4]: 10.1 µM
GI50 [5]: 1.88 µM
TGI [5]: 11.5 µM
GI50 [6]: 2.31 µM
TGI [6]: 10.1 µM
GI50 [7]: 1.96 µM
TGI [7]: 14.2 µM
GI50 [8]: 2.02 µM
TGI [8]: 11 µM
GI50 [9]: 2.71 µM
TGI [9]: 16.6 µM
GI50 [10]: 3.26 µM
TGI [10]: 13.9 µM

CCc1c(C)nc2sc3c(N)ncnc3c2c1C
GI50 [1]: > 25 µM
TGI [1]: > 25 µM
GI50 [2]: > 25 µM
TGI [2]: > 25 µM
GI50 [3]: > 25 µM
TGI [3]: > 25 µM
GI50 [4]: > 25 µM
TGI [4]: > 25 µM
GI50 [5]: > 25 µM
TGI [5]: > 25 µM
GI50 [6]: > 25 µM
TGI [6]: > 25 µM
GI50 [7]: > 25 µM
TGI [7]: > 25 µM
GI50 [8]: > 25 µM
TGI [8]: > 25 µM
GI50 [9]: > 25 µM
TGI [9]: > 25 µM
GI50 [10]: > 25 µM
TGI [10]: > 25 µM

Cc1ccncc1C(N)=O
GI50 [1]: > 100 µM
TGI [1]: > 100 µM
GI50 [2]: > 100 µM
TGI [2]: > 100 µM
GI50 [3]: > 100 µM
TGI [3]: > 100 µM
GI50 [4]: > 100 µM
TGI [4]: > 100 µM
GI50 [5]: > 100 µM
TGI [5]: > 100 µM
GI50 [6]: > 100 µM
TGI [6]: > 100 µM
GI50 [7]: > 100 µM
TGI [7]: > 100 µM
GI50 [8]: > 100 µM
TGI [8]: > 100 µM
GI50 [9]: > 100 µM
TGI [9]: > 100 µM
GI50 [10]: > 100 µM
TGI [10]: > 100 µM

COC(=O)c1cc(-c2ccc(OC)c(OC)c2)[nH]c1N/N=C/c1c(Cl)cccc1Cl
GI50 [1]: 0.379 µM
TGI [1]: 2.21 µM
GI50 [2]: 0.68 µM
TGI [2]: > 100 µM
GI50 [3]: 0.523 µM
TGI [3]: 5.2 µM
GI50 [4]: 0.434 µM
TGI [4]: 2.3 µM
GI50 [5]: 0.366 µM
TGI [5]: 1.87 µM
GI50 [6]: 0.83 µM
TGI [6]: 4.32 µM
GI50 [7]: 0.448 µM
TGI [7]: 1.93 µM
GI50 [8]: 0.834 µM
TGI [8]: 3.25 µM
GI50 [9]: 0.265 µM
TGI [9]: 1.43 µM
GI50 [10]: 0.948 µM
TGI [10]: 8.28 µM

Oc1cccc2c1NCCC2
GI50 [1]: 0.159 µM
TGI [1]: > 100 µM
GI50 [2]: 1.27 µM
TGI [2]: > 100 µM
GI50 [3]: 0.142 µM
TGI [3]: 15.6 µM
GI50 [4]: 5.19 µM
TGI [4]: > 100 µM
GI50 [5]: 0.0425 µM
TGI [5]: 2.59 µM
GI50 [6]: 0.734 µM
TGI [6]: > 100 µM
GI50 [7]: 0.229 µM
TGI [7]: 54.8 µM
GI50 [8]: 0.075 µM
TGI [8]: 13.5 µM
GI50 [9]: 3.67 µM
TGI [9]: > 89.7 µM
GI50 [10]: 0.111 µM
TGI [10]: > 32.2 µM

CC1c2ccccc2CCN1c1ccc(CO)c(Cl)c1 (stereo not given)
GI50 [1]: 20 µM
TGI [1]: 75 µM
GI50 [2]: 24.6 µM
TGI [2]: 77.7 µM
GI50 [3]: 22.5 µM
TGI [3]: 58.2 µM
GI50 [4]: 0.383 µM
TGI [4]: 25.2 µM
GI50 [5]: 0.171 µM
TGI [5]: 3.36 µM
GI50 [6]: 16.7 µM
TGI [6]: 43.1 µM
GI50 [7]: 11.6 µM
TGI [7]: > 53 µM
GI50 [8]: 14.6 µM
TGI [8]: 65.3 µM
GI50 [9]: 2.95 µM
TGI [9]: 17.6 µM
GI50 [10]: 0.759 µM
TGI [10]: 17.1 µM

COc1ccc2c(c1)C(=O)c1c-2c(OCCN(C)C)nc2ccccc12
GI50 [1]: 7.62 µM
TGI [1]: 21.6 µM
GI50 [2]: 0.524 µM
TGI [2]: 5.64 µM
GI50 [3]: 3.85 µM
TGI [3]: 15 µM
GI50 [4]: 1.46 µM
TGI [4]: 5.01 µM
GI50 [5]: 2.48 µM
TGI [5]: 7.01 µM
GI50 [6]: 4.06 µM
TGI [6]: 16.5 µM
GI50 [7]: 2.91 µM
TGI [7]: 9 µM
GI50 [8]: 0.962 µM
TGI [8]: 2.76 µM
GI50 [9]: 3.89 µM
TGI [9]: 14.5 µM
GI50 [10]: 1.33 µM
TGI [10]: 4.54 µM

FC(F)(F)c1cccc(-c2nn3ncccc3c2-c2ccnc(Nc3ccc4c(c3)OCCO4)n2)c1
GI50 [1]: > 18.6 µM
TGI [1]: > 25 µM
GI50 [2]: 11.8 µM
TGI [2]: > 25 µM
GI50 [3]: 17.6 µM
TGI [3]: > 25 µM
GI50 [4]: 7.32 µM
TGI [4]: > 25 µM
GI50 [5]: 13.7 µM
TGI [5]: > 25 µM
GI50 [6]: 8.35 µM
TGI [6]: > 25 µM
GI50 [7]: 19.2 µM
TGI [7]: > 25 µM
GI50 [8]: 3.68 µM
TGI [8]: > 25 µM
GI50 [9]: 13 µM
TGI [9]: > 25 µM
GI50 [10]: 12.8 µM
TGI [10]: > 25 µM
